The test system of one assay is human cancer cell lines. As to the kind of experiment: PNC prevalence in a range of cancer cell lines. The class given is cell-based. The settings on record: 1 μM, 24 hours, different human cancer cell lines. The method, then: FIG. 2 is a bar graph showing that 1 μM metarrestin was effective at reducing PNCs in a range of cancer cell lines (p<0.05 for PNC reduction in all cell lines; the list of cells is in Table 1 below, see also Example 2 below). The DMSO control is shown in light grey bars and metarrestin in dark grey bars. PNC prevalence (%) is on the y-axis and the cell line names are along the x-axis.
In summary, several cell types (see list below in Table 1) were treated with 1 μM (IC100 for PC3M cells) of metarrestin for 24 hours. Specifically, PC-3M cells were maintained in RPMI 1640 medium. Other cell lines including HeLa, Panel, PACADD159, PACADD183, PA-TU-8988T, KP-3, PK-8, NOR-P1, L3.6sl, Colo357, Suit-2, HP AC were maintained in DMEM with 10% FBS (GEMINI™ Bio Products) and 100 units/mL of penicillin and streptomycin. Cells were generally plated approximately 24 h before treatment with metarrestin for 5 h or 24 h at 1 μM.

For the next assay, the system named is Pol II transcription. Description: Pol II transcription status: CUGBP and SC35 immunolabeling. Type of assay: cell-based. The text has this: To further determine whether metarrestin interferes with Pol II transcription in general, CUGBP was immunolabeled. The steady state nuclear distribution of CUGBP, a multifunctional hnRNP protein highly enriched in the PNC, is dependent upon Pol II transcription.

The subject of a further assay is normal mouse hepatocytes. As to the kind of experiment: Nucleolar volume by EM in normal liver tissue. The settings on record: treated normal mouse hepatocytes. The class given is in vivo. On the procedure:
FIGS. 49A-49C are graphs showing quantitative evaluation of the EM images of FIG. 48.
The nucleolar disruption was reversible within 48 hours upon withdrawal of metarrestin (FIG. 47). Similar disruptions were observed among other treated cell lines, including PANC1 and PC3M cells (FIG. 48), primary tumor, and liver metastatic tissues in the PANC1 xenograft model (FIG. 21, right panels). […] The segregation of the nucleolar compartments observed by EM is believed to correspond to the nucleolar capping structures detected by immunofluorescence of nucleolar proteins (FIGS. 21A-21C, 23, and 50). The coupling of nucleolar segregation with PNC loss was confirmed across several cell lines by immunolabeling with antibodies against the nucleolar Pol I transcription initiation factors, UBF (upstream binding transcription factor) (FIGS. 23 and 50), or Pol I polymerase, RPA194 (FIG. 51). Factors involved in ribosome maturation, such as fibrillarin or NOPP140 (FIGS. 51 and 52) were similarly reorganized. In contrast, UBF distribution was not changed when the normal human fibroblast GM02153 cell line was treated with metarrestin at the same concentration (FIG. 53).

With `N=c1c2c(-c3ccccc3)c(-c3ccccc3)n(Cc3ccccc3)c2ncn1[C@H]1CC[C@H](O)CC1` [metarrestin], the PNC prevalence entry in the assay with human cancer cell lines is “reduced PNC prevalence”. In the assay with Pol II transcription, the “Localization of CUGBP” value is on record as “without causing cytoplasmic relocation of CUGBP” and the SC35 distribution pattern result is recorded as “not significantly changed”. Also, the Nucleolar volume entry with normal mouse hepatocytes is recorded as “not changed”.

The values are drawn from patent publication US20210186972A1, “FORMULATIONS AND METHODS FOR THE PREVENTION AND TREATMENT OF TUMOR METASTASIS AND TUMORIGENESIS” (THE UNITED STATES OF AMERICA, AS REPRESENTED BY THE …, priority 2018, published 2021).
